Legend:
[1] = target: T1, hMDR1(P-gp) (Homo sapiens, UniProt P08183); test: MDCK II-MDR1 drug transport assay (3H-digoxin); type: in vitro ADME; conditions: for Transport activity of P-gp (main text: percentage inhibition): negative control = 100%
T1 construct: host or cells: MDCKII-MDR1
Text: Drug transporters mediate the cellular uptake and efflux of their substrates. Therefore, cell lines overexpressing a drug transporter can be utilized to investigate inhibitors of the transporter by assessing changes in substrate uptake. For each drug transporter, we selected a well-characterized inhibitor as the positive control. Radiolabeled substrates were used to indicate the decrease in transport efficiency when the drug transporters were inhibited by PDQ or the control inhibitors.
The concentrations of the control drugs and the substrates were stated in the assay details. Working solutions of the control inhibitors, the radiolabeled substrates, and each dose of PDQ were prepared at 200 times (200×) more concentrated solutions with DMSO for further dilution.
Transporter-overexpressed cell lines. Human organic anion transporter-overexpressed cell lines MDCKII-OAT1 and S2-OAT3, human organic anion transport polypeptide-overexpressed cell lines HEK293A-OATP1B1 and HEK293A-OATP1B3, human organic cation transporter 2-overexpressed cell line S2-OCT2, and human multi-drug resistance protein MDR1 (or P-gp)-overexpressed cell line MDCKII-MDR1 were gifts from Japan Fuji Biomedical Co., Ltd. (Fuji, Shizuoka Prefecture, Japan). Breast cancer resistance protein-overexpressed vesicles (sf9-BCRP vesicle) were purchased from GenoMembrane Co., Ltd. (Yokohama, Kanagawa, Japan).
All reagents were pre-warmed to 37 °C. […] The plate was incubated for 20 min. […] Each sample was replicated three times (N = 3).
In = [100 × (U − U0)/(Uc − U0)]%(3)
The results were expressed as mean ± standard deviation (SD) and analyzed with GraphPad Prism 8.0 software (CA, USA). The IC50 of PDQ was curve-fitted with the FORECAST function.

[2] = target: T2, CYP2D6 (Homo sapiens, UniProt P10635); test: CYP450 inhibition assay in human liver microsomes, CYP2D6; type: in vitro ADME; conditions: HLM 0.1 mg/mL; probe dextromethorphan 10 µM; 20 min
T2 construct: tissue Corning 452117; host or cells: human liver microsomes
Description: To evaluate the reliability and reproducibility of the CYP450 inhibition assay, we measured the inhibitory effects of selected positive control inhibitors of each CYP450 enzyme in human liver microsomes (HLM, Table 1, Figure 2). The potency of inhibition was estimated by observing the alteration in concentration of metabolites of CYP450 substrates (Table 1).
Reagents preparation. […] The stock solution of PDQ (10 mM) was prepared with methanol and further diluted to the range of 3 µM to 3 mM with methanol to ensure that the solvent of different PDQ samples contained the same amount (1%) of methanol.
The stock solutions of the positive control inhibitors and the probe substrates of CYP450 enzymes were prepared in methanol.
CYP450 inhibition assay. […] The assay was conducted in polypropylene 96-well plates (2.2 mL/well, Apricot Designs Inc., Covina, CA, USA).
The total volume of the reaction is 200 μL. […] The substrates and analytes were analyzed by LC-MS/MS (API4000, Applied Biosystems, Singapore; HPLC, Shimadzu, Japan). […]
Data analysis. […] The IC50 was determined by fitting the dependence of the relative remaining activity (y = Vi/V0) to the following three-parameter equation (Equation (1)). […]

T1 sequence (P08183 whole entry): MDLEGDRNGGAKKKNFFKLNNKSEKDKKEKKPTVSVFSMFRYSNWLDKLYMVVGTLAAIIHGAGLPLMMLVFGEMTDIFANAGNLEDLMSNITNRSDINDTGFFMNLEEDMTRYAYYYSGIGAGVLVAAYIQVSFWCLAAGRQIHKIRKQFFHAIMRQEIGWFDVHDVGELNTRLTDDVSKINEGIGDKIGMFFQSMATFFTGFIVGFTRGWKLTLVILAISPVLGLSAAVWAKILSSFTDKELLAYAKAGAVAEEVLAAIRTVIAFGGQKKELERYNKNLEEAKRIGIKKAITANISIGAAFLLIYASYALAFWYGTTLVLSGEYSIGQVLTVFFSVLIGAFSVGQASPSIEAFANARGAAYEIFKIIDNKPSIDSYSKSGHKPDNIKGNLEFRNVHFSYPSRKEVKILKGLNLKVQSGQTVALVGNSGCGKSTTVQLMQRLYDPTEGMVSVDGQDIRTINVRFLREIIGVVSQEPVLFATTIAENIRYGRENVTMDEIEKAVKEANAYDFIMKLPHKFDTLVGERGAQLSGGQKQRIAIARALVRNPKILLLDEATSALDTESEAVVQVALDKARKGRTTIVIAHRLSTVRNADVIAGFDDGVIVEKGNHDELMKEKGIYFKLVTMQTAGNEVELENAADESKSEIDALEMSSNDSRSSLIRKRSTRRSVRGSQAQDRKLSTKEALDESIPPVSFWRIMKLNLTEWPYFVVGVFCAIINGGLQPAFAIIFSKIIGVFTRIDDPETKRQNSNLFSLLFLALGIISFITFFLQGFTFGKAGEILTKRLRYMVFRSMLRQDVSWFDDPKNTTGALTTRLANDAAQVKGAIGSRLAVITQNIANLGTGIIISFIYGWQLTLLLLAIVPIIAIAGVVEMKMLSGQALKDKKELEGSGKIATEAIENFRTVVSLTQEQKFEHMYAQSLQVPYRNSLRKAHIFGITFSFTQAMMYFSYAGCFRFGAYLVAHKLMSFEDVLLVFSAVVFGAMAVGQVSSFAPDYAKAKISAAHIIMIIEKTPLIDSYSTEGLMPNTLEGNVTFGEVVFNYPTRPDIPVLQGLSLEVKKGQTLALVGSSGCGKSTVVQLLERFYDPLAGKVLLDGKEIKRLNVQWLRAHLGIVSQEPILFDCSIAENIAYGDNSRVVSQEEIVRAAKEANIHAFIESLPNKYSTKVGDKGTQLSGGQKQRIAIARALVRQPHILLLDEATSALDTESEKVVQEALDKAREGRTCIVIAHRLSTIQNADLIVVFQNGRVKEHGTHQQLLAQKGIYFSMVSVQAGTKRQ
T2 sequence (P10635 whole entry): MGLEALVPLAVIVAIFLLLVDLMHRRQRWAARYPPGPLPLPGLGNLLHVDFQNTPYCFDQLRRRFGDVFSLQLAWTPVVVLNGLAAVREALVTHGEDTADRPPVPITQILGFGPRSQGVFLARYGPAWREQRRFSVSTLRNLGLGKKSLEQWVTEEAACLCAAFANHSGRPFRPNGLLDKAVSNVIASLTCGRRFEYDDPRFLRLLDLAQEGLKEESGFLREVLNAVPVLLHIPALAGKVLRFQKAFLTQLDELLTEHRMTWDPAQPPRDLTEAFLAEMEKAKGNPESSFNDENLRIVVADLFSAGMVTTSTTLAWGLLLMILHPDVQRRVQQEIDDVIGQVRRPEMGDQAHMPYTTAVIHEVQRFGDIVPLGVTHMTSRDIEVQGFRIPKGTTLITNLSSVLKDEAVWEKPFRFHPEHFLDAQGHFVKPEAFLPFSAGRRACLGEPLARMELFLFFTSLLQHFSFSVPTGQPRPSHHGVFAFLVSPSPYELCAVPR

CC(C)(O)[C@@H]1CC[C@@](C)([C@H]2CC[C@]3(C)[C@@H]2[C@H](O)C[C@@H]2[C@@]4(C)CC[C@H](O)C(C)(C)[C@@H]4CC[C@]23C)O1 [PDQ, (20S,24S)-dammar-20,24-epoxy-3β, 12β, 25-triol]
IC50 ([1]; MDCKII-MDR1, 25 μM 3H-digoxin, 15 min): 0.41 µM
Transport activity of P-gp (main text: percentage inhibition) ([1]; inhibitor 0.1 μM): 57.5±7.1%
Transport activity of P-gp (main text: percentage inhibition) ([1]; inhibitor 0.3 μM): 57.0±9.2%
Transport activity of P-gp (main text: percentage inhibition) ([1]; inhibitor 1 μM): 30.8±6.4%
Transport activity of P-gp (main text: percentage inhibition) ([1]; inhibitor 3 μM): 23.2±7.1%
IC50 [2]: 52 µM

From paper PMC11173382, “In Vitro Investigations into the Potential Drug Interactions of Pseudoginsenoside DQ Mediated by Cytochrome P450 and Human Drug Transporters” (Molecules, 2024)
